Experimental data taken from ChEMBL document CHEMBL5331135, “Design, Synthesis, and Evaluation of Glucose Transporter Inhibitor-SN38 Conjugates for Targeting Colorectal Cancer” (J Med Chem, 2023).

Assays:
[1] = system: COLO 205; assay: Cytotoxicity against human COLO 205 cells incubated for 48 hrs by SRB assay; format: functional, cell-based; conditions: COLO 205, 48 h
[2] = Toxicity in AOM/DSS-induced orthotopic CRC BALB/c mouse model assessed as body weight loss at 15 mg/kg, iv administered once every 2 days for 2 weeks; format: organism-based; conditions: in vivo, 336 h
[3] = system: HCT-116; assay: Cytotoxicity against human HCT-116 cells incubated for 48 hrs in presence of SN38 by SRB assay; format: functional, cell-based; conditions: HCT-116, 48 h
[4] = system: COLO 205; assay: Cytotoxicity against human COLO 205 cells incubated for 48 hrs in presence of SN38 by SRB assay; format: functional, cell-based; conditions: COLO 205, 48 h
[5] = Toxicity in AOM/DSS-induced orthotopic CRC BALB/c mouse model assessed as lesions in lung at 15 mg/kg, iv administered once every 2 days for 2 weeks by H&E staining based analysis; format: organism-based; conditions: in vivo, 336 h
[6] = Toxicity in AOM/DSS-induced orthotopic CRC BALB/c mouse model assessed as lesions in spleen at 15 mg/kg, iv administered once every 2 days for 2 weeks by H&E staining based analysis; format: organism-based; conditions: in vivo, 336 h
[7] = system: HT-29; assay: Cytotoxicity against human HT-29 cells incubated for 48 hrs by SRB assay; format: functional, cell-based; conditions: HT-29, 48 h
[8] = Toxicity in AOM/DSS-induced orthotopic CRC BALB/c mouse model assessed as lesions in stomach at 15 mg/kg, iv administered once every 2 days for 2 weeks by H&E staining based analysis; format: organism-based; conditions: in vivo, 336 h
[9] = Toxicity in AOM/DSS-induced orthotopic CRC BALB/c mouse model assessed as lesions in kidney at 15 mg/kg, iv administered once every 2 days for 2 weeks by H&E staining based analysis; format: organism-based; conditions: in vivo, 336 h
[10] = system: HT-29; assay: Cytotoxicity against human HT-29 cells incubated for 48 hrs in presence of SN38 by SRB assay; format: functional, cell-based; conditions: HT-29, 48 h
[11] = Toxicity in AOM/DSS-induced orthotopic CRC BALB/c mouse model assessed as lesions in liver at 15 mg/kg, iv administered once every 2 days for 2 weeks by H&E staining based analysis; format: organism-based; conditions: in vivo, 336 h
[12] = system: HCT-116; assay: Cytotoxicity against human HCT-116 cells incubated for 48 hrs by SRB assay; format: functional, cell-based; conditions: HCT-116, 48 h
[13] = Toxicity in AOM/DSS-induced orthotopic CRC BALB/c mouse model assessed as lesions in heart at 15 mg/kg, iv administered once every 2 days for 2 weeks by H&E staining based analysis; format: organism-based; conditions: in vivo, 336 h
[14] = Toxicity in AOM/DSS-induced orthotopic CRC BALB/c mouse model assessed as lesions in spleen at 20 to 40 mg/kg, iv administered once every 2 days for 2 weeks by H&E staining based analysis; format: organism-based; conditions: in vivo, 336 h, dose 20-40 mg/kg
[15] = Toxicity in AOM/DSS-induced orthotopic CRC BALB/c mouse model assessed as body weight loss at 40 mg/kg, iv administered once every 2 days for 2 weeks; format: organism-based; conditions: in vivo, 336 h
[16] = Antitumor activity against AOM/DSS-induced orthotopic CRC BALB/c mouse model assessed as tumor growth inhibition at 20 mg/kg, iv administered once every 2 days for 2 weeks in presence of SGLT inhibitor by dissecting microscopic analysis relative to control; format: functional, Colorectal cancer cell; set-up: scale not given: the % may be the effect or the level left
[17] = Drug uptake in human COLO 205 cells assessed as drug internalization in presence of 4.5 g/L glucose by fluorescence based assay; format: ADME, cell-based
[18] = Stability in human plasma assessed as formation of carboxylate product measured for 72 hrs by RP-HPLC analysis; format: ADME, cell-free
[19] = Toxicity in AOM/DSS-induced orthotopic CRC BALB/c mouse model assessed as lesions in liver at 20 to 40 mg/kg, iv administered once every 2 days for 2 weeks by H&E staining based analysis; format: organism-based; conditions: in vivo, 336 h, dose 20-40 mg/kg
[20] = Toxicity in AOM/DSS-induced orthotopic CRC BALB/c mouse model assessed as lesions in lung at 20 to 40 mg/kg, iv administered once every 2 days for 2 weeks by H&E staining based analysis; format: organism-based; conditions: in vivo, 336 h, dose 20-40 mg/kg
[21] = Toxicity in AOM/DSS-induced orthotopic CRC BALB/c mouse model assessed as lesions in heart at 20 to 40 mg/kg, iv administered once every 2 days for 2 weeks by H&E staining based analysis; format: organism-based; conditions: in vivo, 336 h, dose 20-40 mg/kg
[22] = Toxicity in AOM/DSS-induced orthotopic CRC BALB/c mouse model assessed as lesions in stomach at 20 to 40 mg/kg, iv administered once every 2 days for 2 weeks by H&E staining based analysis; format: organism-based; conditions: in vivo, 336 h, dose 20-40 mg/kg
[23] = Stability in human plasma assessed as half life by RP-HPLC analysis; format: ADME, cell-free
[24] = Antitumor activity against AOM/DSS-induced orthotopic CRC BALB/c mouse model assessed as tumor growth inhibition at 40 mg/kg, iv administered once every 2 days for 2 weeks in presence of SGLT inhibitor by dissecting microscopic analysis relative to control; format: functional, Colorectal cancer cell; set-up: scale not given: the % may be the effect or the level left
[25] = Toxicity in AOM/DSS-induced orthotopic CRC BALB/c mouse model assessed as lesions in kidney at 20 to 40 mg/kg, iv administered once every 2 days for 2 weeks by H&E staining based analysis; format: organism-based; conditions: in vivo, 336 h, dose 20-40 mg/kg
[26] = Antitumor activity against AOM/DSS-induced orthotopic CRC BALB/c mouse model assessed as reduction in tumor area at 13 mg/kg, iv administered once every 2 days for 2 weeks in presence of SN38 by dissecting microscopic analysis relative to control; format: functional, Colorectal cancer cell; set-up: scale not given: the % may be the effect or the level left
[27] = Toxicity in AOM/DSS-induced orthotopic CRC BALB/c mouse model assessed as lesions in kidney at 13 mg/kg, iv administered once every 2 days for 2 weeks by H&E staining based analysis; format: organism-based; conditions: in vivo, 336 h
[28] = Toxicity in AOM/DSS-induced orthotopic CRC BALB/c mouse model assessed as lesions in lung at 13 mg/kg, iv administered once every 2 days for 2 weeks by H&E staining based analysis; format: organism-based; conditions: in vivo, 336 h
[29] = Toxicity in AOM/DSS-induced orthotopic CRC BALB/c mouse model assessed as lesions in heart at 13 mg/kg, iv administered once every 2 days for 2 weeks by H&E staining based analysis; format: organism-based; conditions: in vivo, 336 h
[30] = Antitumor activity against AOM/DSS-induced orthotopic CRC BALB/c mouse model assessed as reduction in tumor area at 13 mg/kg, iv administered once every 2 days for 2 weeks by dissecting microscopic analysis relative to control; format: functional, Colorectal cancer cell; set-up: scale not given: the % may be the effect or the level left
[31] = Toxicity in AOM/DSS-induced orthotopic CRC BALB/c mouse model assessed as lesions in stomach at 13 mg/kg, iv administered once every 2 days for 2 weeks by H&E staining based analysis; format: organism-based; conditions: in vivo, 336 h
[32] = Toxicity in AOM/DSS-induced orthotopic CRC BALB/c mouse model assessed as lesions in liver at 13 mg/kg, iv administered once every 2 days for 2 weeks by H&E staining based analysis; format: organism-based; conditions: in vivo, 336 h
[33] = Toxicity in AOM/DSS-induced orthotopic CRC BALB/c mouse model assessed as body weight loss at 13 mg/kg, iv administered once every 2 days for 2 weeks; format: organism-based; conditions: in vivo, 336 h
[34] = Toxicity in AOM/DSS-induced orthotopic CRC BALB/c mouse model assessed as lesions in spleen at 13 mg/kg, iv administered once every 2 days for 2 weeks by H&E staining based analysis; format: organism-based; conditions: in vivo, 336 h
[35] = Toxicity in AOM/DSS-induced orthotopic CRC BALB/c mouse model assessed as body weight loss at 14 mg/kg, ip administered every other day for 2 weeks in presence of Irinotecan; format: organism-based; conditions: in vivo, 336 h

## O=C(CCc1ccc(O)cc1)c1c(O)cc(OCCOCCOCCS)cc1O[C@@H]1O[C@H](CO)[C@@H](O)[C@H](O)[C@H]1O
[1]
  IC50: > 100000 nM
[2]
  Activity: Non-Toxic
[3]
  IC50: 45.4 nM
[4]
  IC50: 140 nM
[5]
  Activity: Non-Toxic
[6]
  Activity: Non-Toxic
[7]
  IC50: > 100000 nM
[8]
  Activity: Non-Toxic
[9]
  Activity: Non-Toxic
[10]
  IC50: 330 nM
[11]
  Activity: Non-Toxic
[12]
  IC50: > 100000 nM
[13]
  Activity: Non-Toxic

## CCc1c2c(nc3ccc(OCc4ccc(NC(=O)[C@H](CCCNC(N)=O)NC(=O)[C@@H](NC(=O)CCCCN5C(=O)CC(SCCOCCOCCOc6cc(O)c(C(=O)CCc7ccc(O)cc7)c(O[C@@H]7O[C@H](CO)[C@@H](O)[C@H](O)[C@H]7O)c6)C5=O)C(C)C)cc4)cc13)-c1cc3c(c(=O)n1C2)COC(=O)[C@]3(O)CC (stereo not given in full)
[14]
  Activity: Non-Toxic
[1]
  IC50: 15400 nM
[15]
  Activity: Non-Toxic
[16]
  Activity: 45%
[17]
  Drug uptake: Active
[18]
  Stability: Stable
[19]
  Activity: Non-Toxic
[20]
  Activity: Non-Toxic
[7]
  IC50: > 100000 nM
[21]
  Activity: Non-Toxic
[22]
  Activity: Non-Toxic
[23]
  half-life: 36 h
[12]
  IC50: 3250 nM
[24]
  Activity: 55%
[25]
  Activity: Non-Toxic

## CCc1c2c(nc3ccc(O)cc13)-c1cc3c(c(=O)n1C2)COC(=O)[C@]3(O)CC [7-ETHYL-10-HYDROXYCAMPTOTHECIN]
[1]
  IC50: 0.75 nM
[7]
  IC50: 430 nM
[12]
  IC50: 54.9 nM

## O=C(CCc1ccc(O)cc1)c1c(O)cc(OCCOCCOCCS)cc1O
[26]
  Activity: 55%
[1]
  IC50: > 100000 nM
[27]
  Activity: Non-Toxic
[28]
  Activity: Non-Toxic
[29]
  Activity: Non-Toxic
[30]
  Activity: 35%
[3]
  IC50: 56.5 nM
[4]
  IC50: 150 nM
[31]
  Activity: Non-Toxic
[32]
  Activity: Non-Toxic
[33]
  Activity: Non-Toxic
[34]
  Activity: Non-Toxic
[10]
  IC50: 360 nM
[35]
  Activity: Non-Toxic
